In brackets after ≈: the same amount, converted by molar mass.
Key:
[1] = system: Culture A80789; test: Antibiotic sensitivity disc test on the producing culture; format: cell-based, Streptomyces hygroscopicus; conditions: ISP No. 2 agar
Procedure: Resistance to antibiotics was measured by padding antibiotic sensitivity discs onto the surface of seeded ISP No. 2 agar plates. Resistance was scored as (+) when no zone of inhibition was observed and as (-) when a zone of inhibition was observed.

[2] = system: Great Lakes influenza; test: microbe, parasite or virus in culture; format: cell-based; conditions: read-out: level at which active
[3] = system: HSV II; test: microbe, parasite or virus in culture; format: cell-based, Herpes (HSV II); conditions: tissue-culture tests; read-out: level at which active
[4] = system: Propionibacterium acnes 79; test: Standard agar-dilution assay, MIC (anaerobic bacteria); format: cell-based; conditions: Cutibacterium acnes, 24-hour incubation
Procedure: (§1) The A80789 compounds have antibacterial and anticoccidial activity. A80789 compounds are especially active against anaerobic bacteria. The minimal inhibitory concentrations (MIC's) at which A80789 inhibits various bacteria, as determined by standard agar-dilution assays, are summarized in Tables III and IV. End points were read after 24-hour incubation.

[5] = system: Peptococcus asaccharolyticus 1302; test: as above; format: cell-based; conditions: Peptoniphilus asaccharolyticus, 24-hour incubation
Procedure: as §1

[6] = system: Bacteroides corredens 1874; test: as above; format: cell-based; conditions: 24-hour incubation
Procedure: as §1

[7] = system: Clostridium septicum 1128; test: as above; format: cell-based; conditions: 24-hour incubation
Procedure: as §1

[8] = system: Fusobacterium symbiosum 1470; test: as above; format: cell-based; conditions: 24-hour incubation
Procedure: as §1

[9] = system: Bacteroides fragilis 1877; test: as above; format: cell-based; conditions: 24-hour incubation
Procedure: as §1

[10] = system: Bacteroides melaninogenicus 1856/28; test: as above; format: cell-based; conditions: Prevotella intermedia, 24-hour incubation
Procedure: as §1

[11] = system: Bacteroides vulgatis 1211; test: as above; format: cell-based; conditions: 24-hour incubation
Procedure: as §1

[12] = system: Fusobacterium necrophorum 6054A; test: as above; format: cell-based; conditions: 24-hour incubation
Procedure: as §1

[13] = system: Peptostreptococcus intermedius 1264; test: as above; format: cell-based; conditions: 24-hour incubation
Procedure: as §1

[14] = system: Bacteroides fragilis 111; test: as above; format: cell-based; conditions: 24-hour incubation
Procedure: as §1

[15] = system: Bacteroides thetaiotaomicron 1438; test: as above; format: cell-based; conditions: 24-hour incubation
Procedure: as §1

[16] = system: Peptostreptococcus anaerobius 1428; test: as above; format: cell-based; conditions: 24-hour incubation
Procedure: as §1

[17] = system: Bacteroides fragilis 1936B; test: as above; format: cell-based; conditions: 24-hour incubation
Procedure: as §1

[18] = system: Eubacterium aerofaciens 1235; test: as above; format: cell-based; conditions: Collinsella aerofaciens, 24-hour incubation
Procedure: as §1

[19] = system: Bacteroides melaninogenicus 2736; test: as above; format: cell-based; conditions: 24-hour incubation
Procedure: as §1

[20] = system: Clostridium difficile 2994; test: as above; format: cell-based; conditions: Clostridioides difficile, 24-hour incubation
Procedure: as §1

[21] = system: Peptococcus prevoti 1281; test: as above; format: cell-based; conditions: 24-hour incubation
Procedure: as §1

[22] = system: Streptococcus pyogenes C203; test: Standard agar-dilution assay, MIC; format: cell-based; conditions: 24-hour incubation
Procedure: as §1

[23] = system: Staphylococcus epidermidis Epi 1; test: Standard agar-dilution assay, MIC; format: cell-based; conditions: EPI1, 24-hour incubation
Procedure: as §1

[24] = system: Escherichia coli N10; test: Standard agar-dilution assay, MIC; format: cell-based; conditions: 24-hour incubation
Procedure: as §1

[25] = system: Enterobacter aerogenes C32; test: Standard agar-dilution assay, MIC; format: cell-based; conditions: Klebsiella aerogenes, 24-hour incubation
Procedure: as §1

[26] = system: Escherichia coli EC14; test: Standard agar-dilution assay, MIC; format: cell-based; conditions: 24-hour incubation
Procedure: as §1

[27] = system: Serratia marcescens X99; test: Standard agar-dilution assay, MIC; format: cell-based; conditions: 24-hour incubation
Procedure: as §1

[28] = system: Streptococcus pneumoniae Park 1; test: Standard agar-dilution assay, MIC; format: cell-based; conditions: PARK1, 24-hour incubation
Procedure: as §1

[29] = system: Haemophilus influenzae 76; test: Standard agar-dilution assay, MIC; format: cell-based; conditions: 24-hour incubation
Procedure: as §1

[30] = system: Haemophilus influenzae C.L.; test: Standard agar-dilution assay, MIC; format: cell-based; conditions: 24-hour incubation
Procedure: as §1

[31] = system: Pseudomonas aeruginosa X239; test: Standard agar-dilution assay, MIC; format: cell-based; conditions: 24-hour incubation
Procedure: as §1

[32] = system: Staphylococcus aureus X1.1; test: Standard agar-dilution assay, MIC; format: cell-based; conditions: 24-hour incubation
Procedure: as §1

[33] = system: Streptococcus faecalis 2041; test: Standard agar-dilution assay, MIC; format: cell-based; conditions: 24-hour incubation, reclassified as Enterococcus faecalis 2041
Procedure: as §1

[34] = system: Pseudomonas aeruginosa PS18; test: Standard agar-dilution assay, MIC; format: cell-based; conditions: 24-hour incubation
Procedure: as §1

[35] = system: Shigella sonnei; test: Standard agar-dilution assay, MIC; format: cell-based; conditions: 24-hour incubation
Procedure: as §1

[36] = system: Escherichia coli TEM; test: Standard agar-dilution assay, MIC; format: cell-based; conditions: 24-hour incubation
Procedure: as §1

[37] = system: Staphylococcus epidermidis 222; test: Standard agar-dilution assay, MIC; format: cell-based; conditions: 24-hour incubation
Procedure: as §1

[38] = system: Salmonella sp; test: Standard agar-dilution assay, MIC; format: cell-based; conditions: 24-hour incubation
Procedure: as §1

[39] = system: Staphylococcus aureus X400; test: Standard agar-dilution assay, MIC; format: cell-based; conditions: 24-hour incubation
Procedure: as §1

[40] = system: Klebsiella sp.; test: Standard agar-dilution assay, MIC; format: cell-based; conditions: 24-hour incubation
Procedure: as §1

[41] = system: Pseudomonas aeruginosa X528; test: Standard agar-dilution assay, MIC; format: cell-based; conditions: 24-hour incubation
Procedure: as §1

[42] = system: Streptococcus faecium X66; test: Standard agar-dilution assay, MIC; format: cell-based; conditions: 24-hour incubation, reclassified as Enterococcus faecium X66
Procedure: as §1

[43] = system: Pseudomonas aeruginosa PS72; test: Standard agar-dilution assay, MIC; format: cell-based; conditions: 24-hour incubation
Procedure: as §1

[44] = system: Proteus sp.; test: Standard agar-dilution assay, MIC; format: cell-based; conditions: 24-hour incubation
Procedure: as §1

[45] = system: Enterobacter aerogenes EB17; test: Standard agar-dilution assay, MIC; format: cell-based; conditions: Klebsiella aerogenes, 24-hour incubation
Procedure: as §1

[46] = system: Staphylococcus aureus S13E; test: Standard agar-dilution assay, MIC; format: cell-based; conditions: 24-hour incubation
Procedure: as §1

[47] = system: Staphylococcus aureus V41; test: Standard agar-dilution assay, MIC; format: cell-based; conditions: 24-hour incubation
Procedure: as §1

[48] = system: Vaccina; test: microbe, parasite or virus in culture; format: cell-based; conditions: tissue-culture tests; read-out: level at which active
[49] = Solubility; format: physicochemical; conditions: free acid form
[50] = system: Pseudorabies virus; test: microbe, parasite or virus in culture; format: cell-based; conditions: Suid alphaherpesvirus 1, read-out: level at which active
[51] = system: adult housefly; test: Insecticidal activity; format: in vivo
Text: The A80789 compounds are also useful as insecticides. For example, A80789 is active against adult housefly at levels as low as 100 ppm.

[52] = system: Rhino viruses; test: microbe, parasite or virus in culture; format: cell-based; conditions: tissue-culture tests; read-out: level at which active
[53] = system: HSV I; test: microbe, parasite or virus in culture; format: cell-based, Herpes (HSV I); conditions: read-out: level at which active
[54] = system: Para influenza; test: microbe, parasite or virus in culture; format: cell-based; conditions: read-out: level at which active
[55] = system: Clostridium perfringens 81; test: microbe, parasite or virus in culture; format: cell-based; conditions: Clostridium perfringens, 81, 24 h
[56] = system: Eimeria acervulina; test: Feeding experiments in infected chicks; format: in vivo; conditions: in the feed of young chickens; chicks infected with Eimeria acervulina

Compound: CO[C@H]1/C=C/O[C@@]2(C)Oc3c(C)c(O)c4c(O)c(c(/C=N/N5CCN(C)CC5)c(O)c4c3C2=O)NC(=O)/C(C)=C\C=C\[C@H](C)[C@H](O)[C@@H](C)[C@@H](O)[C@@H](C)[C@H](OC(C)=O)[C@@H]1C [rifampin]
- Resistance of culture to antibiotic ([1]; disc 5 mcg): resistant

Compound: CO[C@H]1C[C@H](O[C@H]2[C@H](C)[C@@H](O[C@@H]3O[C@H](C)C[C@H](N(C)C)[C@H]3O)[C@@H](C)C[C@@]3(CO3)C(=O)[C@H](C)[C@@H](O)[C@@H](C)[C@@H](C)OC(=O)[C@@H]2C)O[C@@H](C)[C@@H]1O [oleandomycin]
- Resistance of culture to antibiotic ([1]; disc 15 mcg): sensitive

Compound: neomycin
- Resistance of culture to antibiotic ([1]; disc 30 mcg): sensitive

Compound: [H]/N=C(/N)N[C@H]1[C@H](O)[C@@H](O)[C@H](O[C@@H]2O[C@@H](C)[C@](O)(C=O)[C@H]2O[C@@H]2O[C@@H](CO)[C@H](O)[C@@H](O)[C@@H]2NC)[C@@H](N/C(N)=N\[H])[C@@H]1O [streptomycin]
- Resistance of culture to antibiotic ([1]; disc 10 mcg): sensitive

Compound: gentamicin
- Resistance of culture to antibiotic ([1]; disc 10 mcg): sensitive

Compound: CCC[C@@H]1C[C@@H](C(=O)N[C@@H]([C@H]2O[C@H](SC)[C@H](O)[C@@H](O)[C@H]2O)[C@@H](C)O)N(C)C1 [lincomycin]
- Resistance of culture to antibiotic ([1]; disc 2 mcg): resistant

Compound: COC1CCC(OC2C(C)C3(OC(CC4OC(O)(C(C)C(=O)O)C(C)C(OC)C4C)CC(OC)C3C)OC2(C)C2CCC(C3CCC(C4OC(C)(O)C(C)CC4C)O3)O2)OC1C (centres unmarked) [A80789]
- minimal effective concentration [2]: 2000 µg/mL
- minimal effective concentration [3]: 2000 µg/mL
- MIC [4]: 0.25 µg/mL (≈ 0.282 µM)
- MIC [5]: ≤ 0.03 µg/mL
- MIC [6]: 8 µg/mL (≈ 9.04 µM)
- MIC [7]: 0.5 µg/mL (≈ 0.565 µM)
- MIC [8]: 2 µg/mL (≈ 2.26 µM)
- MIC [9]: 8 µg/mL (≈ 9.04 µM)
- MIC [10]: 4 µg/mL (≈ 4.52 µM)
- MIC [11]: 1 µg/mL (≈ 1.13 µM)
- MIC [12]: 2 µg/mL (≈ 2.26 µM)
- MIC [13]: 0.125 µg/mL (≈ 0.141 µM)
- MIC [14]: 8 µg/mL (≈ 9.04 µM)
- MIC [15]: 128 µg/mL (≈ 145 µM)
- MIC [16]: 0.25 µg/mL (≈ 0.282 µM)
- MIC [17]: 8 µg/mL (≈ 9.04 µM)
- MIC [18]: 0.5 µg/mL (≈ 0.565 µM)
- MIC [19]: 8 µg/mL (≈ 9.04 µM)
- MIC [20]: 0.5 µg/mL (≈ 0.565 µM)
- MIC [21]: 0.125 µg/mL (≈ 0.141 µM)
- MIC [22]: 0.03 µg/mL (≈ 0.0339 µM)
- MIC [23]: 0.25 µg/mL (≈ 0.282 µM)
- MIC [24]: > 128 µg/mL
- MIC [25]: > 128 µg/mL
- MIC [26]: > 128 µg/mL
- MIC [27]: > 128 µg/mL
- MIC [28]: 0.03 µg/mL (≈ 0.0339 µM)
- MIC [29]: > 128 µg/mL
- MIC [30]: > 128 µg/mL
- MIC [31]: > 128 µg/mL
- MIC [32]: 0.25 µg/mL (≈ 0.282 µM)
- MIC [33]: > 128 µg/mL
- MIC [34]: > 128 µg/mL
- MIC [35]: > 128 µg/mL
- MIC [36]: > 128 µg/mL
- MIC [37]: 0.125 µg/mL (≈ 0.141 µM)
- MIC [38]: > 128 µg/mL
- MIC [39]: 0.25 µg/mL (≈ 0.282 µM)
- MIC [40]: > 128 µg/mL
- MIC [41]: > 128 µg/mL
- MIC [42]: > 128 µg/mL
- MIC [43]: > 128 µg/mL
- MIC [44]: > 128 µg/mL
- MIC [45]: > 128 µg/mL
- MIC [46]: 0.25 µg/mL (≈ 0.282 µM)
- MIC [47]: 0.25 µg/mL (≈ 0.282 µM)
- minimal effective concentration [48]: 2000 µg/mL
- Solubility ([49]; in water): Insoluble
- Solubility ([49]; lower alcohols such as methanol, acetone, ethyl acetate, chloroform, diethyl ether, benzene, toluene, warm hexane): soluble
- minimal effective concentration [50]: < 0.078 µg/mL
- level (as low as) at which active [51]: 100 ppm
- minimal effective concentration [52]: 2000 µg/mL
- minimal effective concentration [53]: 2000 µg/mL
- minimal effective concentration [54]: 2000 µg/mL
- MIC [55]: 0.5 µg/mL (≈ 0.565 µM)
- level in feed (as low as) that caused a reduction in the number of lesions [56]: 100 ppm
